Assay [1] addresses T1, Mcl-1/Bim interaction, recombinant human Mcl-1 (171-327) (Homo sapiens, UniProt Q07820).
T1 construct: made in house
In words: Cell free Mcl-1: Bim Affinity Assay (Mcl-1 HTRF). It is filed as binding. Particulars: cell free Mcl-1:Bim TR-FRET, recombinant human Mcl-1 (171-327). The method in brief:
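Displacement of biotinylated Bim 51-76 peptide is followed by TR-FRET. Incubation runs overnight. Duplicate points are fitted with a four-parameter sigmoid to yield IC50.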
(In general: TR-FRET usually uses a lanthanide donor and a delayed reading to cut background.)

In assay [2] the test system is OPM-2 human multiple myeloma cell line. As to the kind of experiment: Cell Viability Assay (OPM-2 10 FBS). It counts as cell-based. To be noted: Homo sapiens, OPM-2, 16 h, OPM-2 cells, 16 h, CellTiter-Glo. The gist of the method:
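IC50 from 4-parameter logistic fit of CellTiter-Glo luminescence. 3000 cells/well, 10% FBS medium, serial compound dilutions, 16 h, 37 °C/5% CO2; read 25 min post-reagent.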
A general note: ATP-based viability assays read luminescence as a measure of living cells.

Molecules are shown by their SMILES.

T1 sequence (Q07820 171-327): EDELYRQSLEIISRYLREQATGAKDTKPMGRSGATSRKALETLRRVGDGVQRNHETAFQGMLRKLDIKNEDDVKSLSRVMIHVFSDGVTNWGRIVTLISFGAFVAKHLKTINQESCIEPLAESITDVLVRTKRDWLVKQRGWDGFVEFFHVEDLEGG

As to `C[C@@H]1[C@@H](C)C/C=C/[C@H](OCCN(C)C)[C@@H]2CC[C@H]2CN2C[C@@]3(CCCc4cc(Cl)ccc43)COc3ccc(cc32)C(=O)NS1(=O)=O` [Example 513, (1S,3′R,6′R,7′S,8′E,11′S,12′R)-6-chloro-7′-(2-(dimethylamino)ethoxy)-11′,12′-dimethyl-3,4-dihydro-2H,15′H-spiro[naphthalene-1,22′-[20]oxa[13]thia[1,14]diazatetracyclo[14.7.2.0^3,6.0^19,24]pentacosa [8,16,18,24]tetraen]-15′-one 13′,13′-dioxide], the IC50 in assay [1] stood at 0.395 nM; in assay [2], 184 nM.
For `C[C@@H]1[C@@H](C)C/C=C/[C@H](OCCN2CCCC(F)(F)C2)[C@@H]2CC[C@H]2CN2C[C@@]3(CCCc4cc(Cl)ccc43)COc3ccc(cc32)C(=O)NS1(=O)=O` [Example 515, (1S,3′R,6′R,7′S,8′E,11′S,12′R)-6-chloro-7′-(2-(3,3-difluoro-1-piperidinyl)ethoxy)-11′,12′-dimethyl-3,4-dihydro-2H,15′H-spiro[naphthalene-1,22′-[20]oxa[13]thia[1,14]diazatetracyclo[14.7.2.0^3,6.0^19,24]pentacosa [8,16,18,24]tetraen]-15′-one 13′,13′-dioxide] the same measures were 4.87 nM and 2520 nM.
On the same counts, the results for `C[C@@H]1[C@@H](C)C/C=C/[C@H](OCCO)[C@@H]2CC[C@H]2CN2C[C@@]3(CCCc4cc(Cl)ccc43)COc3ccc(cc32)C(=O)NS1(=O)=O` [Example 516, (1S,3′R,6′R,7′S,8′E,11′S,12′R)-6-chloro-7′-(2-hydroxyethoxy)-11′,12′-dimethyl-3,4-dihydro-2H,15′H-spiro[naphthalene-1,22′-[20]oxa[13]thia[1,14]diazatetracyclo[14.7.2.0^3,6.0^19,24]pentacosa[8,16,18,24]tetraen]-15′-one 13′,13′-dioxide] are 0.27 nM and 72.5 nM.
On the same counts, the results for `C[C@@H]1[C@@H](C)C/C=C/[C@H](OCCN2CC3(COC3)C2)[C@@H]2CC[C@H]2CN2C[C@@]3(CCCc4cc(Cl)ccc43)COc3ccc(cc32)C(=O)NS1(=O)=O` [Example 518, (1S,3′R,6′R,7′S,8′E,11′S,12′R)-6-chloro-11′,12′-dimethyl-7′-(2-(2-oxa-6-azaspiro[3.3]hept-6-yl)ethoxy)-3,4-dihydro-2H,15′H-spiro[naphthalene-1,22′-[20]oxa[13]thia[1,14]diazatetracyclo[14.7.2.0^3,6.0^19,24]pentacosa [8,16,18,24]tetraen]-15′-one 13′,13′-dioxide] are 0.49 nM and 257 nM.
On to `C[C@@H]1[C@@H](C)C/C=C/[C@H](OCCN2C[C@@H]3C[C@H]2CO3)[C@@H]2CC[C@H]2CN2C[C@@]3(CCCc4cc(Cl)ccc43)COc3ccc(cc32)C(=O)NS1(=O)=O` [Example 520, (1S,3′R,6′R,7′S,8′E,11′S,12′R)-6-chloro-11,12′-dimethyl-7′-(2-((1S,4S)-2-oxa-5-azabicyclo[2.2.1]hept-5-yl)ethoxy)-3,4-dihydro-2H,15′H-spiro[naphthalene-1,22′-[20]oxa[13]thia[1,14]diazatetracyclo[14.7.2.0^3,6.0^19,24]pentacosa [8,16,18,24]tetraen]-15′-one 13′,13′-dioxide 2,2,2-trifluoroacetic Acid], for which the 50% inhibitory concentration (IC50) in assay [1] is 0.279 nM; in assay [2], 142 nM.
With `C[C@@H]1[C@@H](C)C/C=C/[C@H](OCCN2C[C@H]3C[C@@H]2CO3)[C@@H]2CC[C@H]2CN2C[C@@]3(CCCc4cc(Cl)ccc43)COc3ccc(cc32)C(=O)NS1(=O)=O` [Example 521, (1S,3′R,6′R,7′S,8′E,11′S,12′R)-6-chloro-11′,12′-dimethyl-7′-(2-((1R,4R)-2-oxa-5-azabicyclo[2.2.1]hept-5-yl)ethoxy)-3,4-dihydro-2H,15′H-spiro[naphthalene-1,22′-[20]oxa[13]thia[1,14]diazatetracyclo[14.7.2.0^3,6.0^19,24]pentacosa [8,16,18,24]tetraen]-15′-one 13′,13′-dioxide 2,2,2-trifluoroacetic Acid], the IC50 in assay [1] was 0.291 nM; in assay [2], 166 nM.
For `C[C@@H]1[C@@H](C)C/C=C/[C@H](OCCNC2COC2)[C@@H]2CC[C@H]2CN2C[C@@]3(CCCc4cc(Cl)ccc43)COc3ccc(cc32)C(=O)NS1(=O)=O` [Example 522, (1S,3′R,6′R,7′S,8′E,11′5,12′R)-6-chloro-11′,12′-dimethyl-7′-(2-(3-oxetanylamino)ethoxy)-3,4-dihydro-2H,15′H-spiro[naphthalene-1,22′-[20]oxa[13]thia[1,14]diazatetracyclo[14.7.2.0^3,6.0^19,24]pentacosa [8,16,18,24]tetraen]-15′-one 13′,13′-dioxide 2,2,2-trifluoroacetic Acid] the same measures were 0.284 nM and 152 nM.
On the same counts, the results for `C[C@@H]1COCCN1CCO[C@H]1/C=C/C[C@H](C)[C@@H](C)S(=O)(=O)NC(=O)c2ccc3c(c2)N(C[C@@H]2CC[C@H]21)C[C@@]1(CCCc2cc(Cl)ccc21)CO3` [Example 523, (1S,3′R,6′R,7′S,8′E,11′S,12′R)-6-chloro-11′,12′-dimethyl-7′-(2-((3R)-3-methyl-4-morpholinyl)ethoxy)-3,4-dihydro-2H,15′H-spiro[naphthalene-1,22′-[20]oxa[13]thia[1,14]diazatetracyclo[14.7.2.0^3,6.0^19,24]pentacosa [8,16,18,24]tetraen]-15′-one 13′,13′-dioxide] are 1.82 nM and 232 nM.
On the same counts, the results for `C[C@@H]1[C@@H](C)C/C=C/[C@H](OCCN2CCS(=O)(=O)CC2)[C@@H]2CC[C@H]2CN2C[C@@]3(CCCc4cc(Cl)ccc43)COc3ccc(cc32)C(=O)NS1(=O)=O` [Example 524, (1S,3′R,6′R,7′S,8′E,11′S,12′R)-6-chloro-7′-(2-(1,1-dioxido-4-thiomorpholinyl)ethoxy)-11′,12′-dimethyl-3,4-dihydro-2H,15′H-spiro[naphthalene-1,22′-[20]oxa[13]thia[1,14]diazatetracyclo[14.7.2.0^3,6.0^19,24]pentacosa [8,16,18,24]tetraen]-15′-one 13′,13′-dioxide] are 0.365 nM and 113 nM.
Turning to `COC1CN(CCO[C@H]2/C=C/C[C@H](C)[C@@H](C)S(=O)(=O)NC(=O)c3ccc4c(c3)N(C[C@@H]3CC[C@H]32)C[C@@]2(CCCc3cc(Cl)ccc32)CO4)C1` [Example 525, (1S,3′R,6′R,7′S,8′E,11′S,12′R)-6-chloro-7′-(2-(3-methoxy-1-azetidinyl)ethoxy)-11′,12′-dimethyl-3,4-dihydro-2H,15′H-spiro[naphthalene-1,22′-[20]oxa[13]thia[1,14]diazatetracyclo[14.7.2.0^3,6.0^19,24]pentacosa [8,16,18,24]tetraen]-15′-one 13′,13′-dioxide 2,2,2-trifluoroacetic Acid], the values for the 50% inhibitory concentration (IC50) in assay [1] and in assay [2] were 0.416 nM and 186 nM, respectively.
On the same counts, the results for `C[C@@H]1[C@@H](C)C/C=C/[C@H](OCCN2CCC2)[C@@H]2CC[C@H]2CN2C[C@@]3(CCCc4cc(Cl)ccc43)COc3ccc(cc32)C(=O)NS1(=O)=O` [Example 526, (1S,3′R,6′R,7′S,8′E,11′S,12′R)-7′-(2-(1-azetidinyl)ethoxy)-6-chloro-11′,12′-dimethyl-3,4-dihydro-2H,15′H-spiro[naphthalene-1,22′-[20]oxa[13]thia[1,14]diazatetracyclo[14.7.2.0^3,6.0^19,24]pentacosa [8,16,18,24]tetraen]-15′-one 13′,13′-dioxide 2,2,2-trifluoroacetic Acid] are 1.06 nM and 862 nM.

The term IC50 denotes the midpoint of a concentration-inhibition curve.

Source of the values: patent publication US12091425B2 (AMGEN INC., priority 2016, dated 2024).
